Laboratory results: patent US20240092745A1, “DRUGS AND COMPOSITIONS FOR THE TREATMENT OF OCULAR DISORDERS” (Graybug Vision, Inc., priority 2017, published 2024)
Like-named read-outs stand apart in the source and are kept apart here.

Tests used:
[1] = Determination of drug solubility in aqueous and organic solvent; format: physicochemical; details: thermodynamic from solid, Table 3B;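 further: solid drug suspended at 50 mg/mL nominal in each solvent, vortexed and sonicated, then dissolved concentration in filtered supernatant quantified by HPLC against a calibration curve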
Description: For each test, approximately 5-10 mg was transferred to a 10 mL glass vial. Aqueous or organic solvent was added to each vial to achieve an overall concentration of 50 mg/mL. After vortexing aggressively for 2-3 minutes and sonicating in a bath sonicator for 5 minutes, undissolved drug was spun down at 1200 rpm for 5 minutes to generate a pellet. The supernatant was collected and filtered through a 0.2 μm nylon syringe filter into HPLC vials for drug content analysis. Drug concentration was determined by comparing against a standard calibration curve.

[2] = In vitro stability of prodrugs (degradation to parent, RP-HPLC); format: physicochemical; details: for degradation kinetics / hydrolysis to parent, in words: PBS (pH 7) with 10% DMSO, 37° C., RP-HPLC
Description: Prodrugs of interest were dissolved in PBS (pH 7) containing 10% DMSO (v/v) at a concentration of 0.1 mg/mL. The samples were incubated at 37° C. or 50° C. to simulate physiological and accelerated degradation conditions, respectively. At various time points, 500 μL of the solution was collected, filtered through a 0.2 μm nylon syringe filter and analyzed by RP-HPLC.
Timolol-Dorzolamide bi-functional prodrugs were dissolved in a mixture of DMSO and PBS and incubated at 37° C. The solution was aliquoted and analyzed by HPLC at pre-determined time points. Timolol-Dorzolamide bi-functional prodrugs were stable for about 3 hours as evidenced by the significant reduction of prodrug peaks in HPLC after 2-3 hours (FIG. 30A and FIG. 30B). Timolol parent drug was detected as the bi-functional prodrug degraded, whereas Dorzolamide appeared in the form of prodrugs, i.e., Dorzolamide linked with 1-3 PLA units.

[3] = organic solvent or mixture, DMSO, read-out: Solubility DMSO
[4] = water, drug added to 50 mg/mL, read-out: Solubility Water

| Structure (SMILES) | solubility [1, 3] | solubility [1, 4] | polymer hydrolyzed to release free Timolol ([2]; by day 13, 37° C.) | degradation kinetics / hydrolysis to parent, in words [2] |
| --- | --- | --- | --- | --- |
| CCOC(=O)CCC(=O)O[C@H](COc1nsnc1N1CCOCC1)CN(C(=O)[C@H](C)OC(=O)[C@H](C)OC(C)=O)C(C)(C)C [Compound 117-6, Timolol-bis-N-acetyl-PLA(n=2)-O-ethyl-succinate] | > 50 mg/mL | < 1 mg/mL | approximately 50% |  |
| CC(=O)O[C@@H](C)C(=O)O[C@@H](C)C(=O)O[C@H](COc1nsnc1N1CCOCC1)CN(C(=O)[C@H](C)OC(=O)[C@H](C)OC(C)=O)C(C)(C)C [Compound 118-1, Timolol-bis-N-acetyl-PLA(n=2)] | > 50 mg/mL | < 0.1 mg/mL |  | degraded slightly faster than a Timolol-bis-N-acetyl PLA(n=4) (119-6) |
| CCOC(=O)CCC(=O)O[C@H](COc1nsnc1N1CCOCC1)CN(C(=O)[C@H](C)OC(=O)[C@H](C)OC(=O)[C@H](C)OC(=O)[C@H](C)OC(C)=O)C(C)(C)C [Compound 120-1, Timolol-bis-N-acetyl-PLA(n=4)-O-ethyl succinate] | > 50 mg/mL | < 1 mg/mL |  | degraded to free Timolol incompletely by day 13 |
